Test results reported in US6080761A, “Inhibition of smooth muscle cell migration by (R)-amlodipine” (Pfizer Inc., priority 1993, dated 2000).
Read-outs that look alike come from different tables or passages of the source.

Test system: rabbit aortic smooth muscle cells
Assay: aortic explant assay of smooth muscle cell migration induced by platelet-derived growth factor
Type: cell-based
Conditions: Oryctolagus cuniculus, read-out: % inhibition of SMC migration from explants
Description: In this method uniform pieces of intimal/medial tissue from rabbit aorta were cultured in individual wells of a well plate. Migration was induced by addition of platelet-derived growth factor to the culture. Following a lag phase of several days the smooth muscle cells migrated from the explanted tissue and proliferated.
The distance covered by the outgrowing smooth muscle cells was measured.
This assay was carried out with varying concentrations of test compound added to the culture. The compounds thus tested were the maleate salts of the racemic mixture of R(+) and S(-) amlodipine, the maleate salts of R(+) and S(-) amlodipine separately and the known calcium channel-blocking agents nitrendipine and verapamil.
The results obtained are shown in Table 1, in which the percentage inhibition of smooth muscle cell migration for concentrations of test compound of 1 nanomole and 0.1 nanomole are recorded.

[1] = 0.1 nM test compound, rabbit aortic explants, PDGF-induced migration
[2] = 1 nM test compound, rabbit aortic explants, PDGF-induced migration

| SMILES | inhibition at 0.0001 µM [1] | inhibition at 0.001 µM [2] | inhibition at 0.0001 µM | inhibition at 0.001 µM |
| --- | --- | --- | --- | --- |
| CCOC(=O)C1=C(COCCN)NC(C)=C(C(=O)OC)C1c1ccccc1Cl (racemic) [Amlodipine (racemate), 3-ethyl-5-methyl-2-(2-aminoethoxy-methyl)-4-(2-chlorophenyl)-1,4-dihydro-6-methylpyridine-3,5-dicarboxylate] | 39% | 33% |  |  |
| CCOC(=O)C1=C(COCCN)NC(C)=C(C(=O)OC)[C@H]1c1ccccc1Cl [Amlodipine R (+), R(+) isomer of 3-ethyl-5-methyl-2-(2-aminoethoxy-methyl)-4-(2-chlorophenyl)-1,4-dihydro-6-methylpyridine-3,5-dicarboxylate] | 36% | 39% |  |  |
| CCOC(=O)C1=C(COCCN)NC(C)=C(C(=O)OC)[C@@H]1c1ccccc1Cl [Amlodipine S (-)] | 21% | 30% |  |  |
| CCOC(=O)C1=C(C)NC(C)=C(C(=O)OC)C1c1cccc([N+](=O)[O-])c1 (stereo not shown) [Nitrendipine, nitrendipine] | 14% | 28% |  |  |
| COc1ccc(CCN(C)CCCC(C#N)(c2ccc(OC)c(OC)c2)C(C)C)cc1OC (stereo not shown) [Verapamil, verapamil] |  |  | 13% | 22% |
